Data: patent US20100197650A1, “COMPOSITIONS AND METHODS OF TREATMENT COMPRISING CEFTAROLINE” (FOREST LABORATORIES HOLDINGS LTD., priority 2008, published 2010)
Values after ≈ are worked out from the molar mass of the structure shown. Values joined by “and” are separate entries in the source; they are usually repeats but may differ in a detail not shown here. Identical values can stand only once. Like-named read-outs stand apart in the source and are kept apart here.

Legend:
Enterococcus faecalis = test: MIC, broth microdilution (Example 1); format: cell-based
Procedure: (§1) Stock solutions of all antibacterial agents were prepared at 80-fold (80×) the final target concentration in the appropriate solvent and the solution was allowed to stand for 60 minutes. All antibacterial agents were in solution under these conditions. The final drug concentrations in the FIC assay plates were set to bracket the MIC value of each agent for each test organism, unless the strain was totally resistant to the test agent.
(§2) The test organisms were originally received from clinical sources, or from the American Type Culture Collection. Upon receipt, the isolates were streaked onto the appropriate growth medium: Chocolate Agar for H. influenzae, Tryptic Soy Agar II (Becton Dickinson, Sparks, Md.) supplemented with 5% defibrinated sheep blood for streptococci, and unsupplemented Tryptic Soy Agar II for all other organisms. Colonies were harvested from these plates and a cell suspension was prepared in Tryptic Soy Broth (Becton Dickinson) containing cryoprotectant. Aliquots were then frozen at −80° C. On the day prior to assay, the frozen seeds of the organisms to be tested in that session were thawed and streaked for isolation onto the appropriate agar medium plates and incubated overnight at 35° C.
(§3) The test medium for H. influenzae was Haemophilus Test Medium. Streptococci were tested in Mueller Hinton II Broth (Becton Dickinson; Lot 6235472) supplemented with 2% lysed horse blood (Cleveland Scientific, Bath, Ohio; Lot H88621). All other organisms were tested in Mueller Hinton II Broth (Becton Dickinson, Lot 6235472). The broth was prepared at 1.05× normal weight/volume to offset the 5% volume of the drugs in the final test plates.
(§4) In order to select the proper test concentrations for each drug combination, minimal inhibitory concentration (MIC) values were first determined using the broth microdilution method previously described (Clinical and Laboratory Standards Institute. Methods for Dilution Antimicrobial Susceptibility Tests for Bacteria That Grow Aerobically; Approved Standard—Seventh Edition. Clinical and Laboratory Standards Institute document M7-A7 [ISBN 1-56238-587-9]. Clinical and Laboratory Standards Institute, 940 West Valley Road, Suite 1400, Wayne, Pa. 19087-1898 USA, 2006).
(§5) The wells of standard 96-well microdilution plates (Falcon 3918) were filled with 150 μL of 100% DMSO using the Multidrop 384. These plates were used to prepare the drug “mother plates” which provided the serial drug dilutions for the drug combination plates. The Biomek 2000 was used to transfer 150 μl of each stock solution (80×) from the wells in Column 1 of a deep well plate to the corresponding wells in Column 1 of the mother plate and to make seven 2-fold serial dilutions. Two mother plates, one for each drug, were combined to form a “checkerboard” pattern by transfer of equal volumes (using a multi-channel pipette) to the drug combination plate. Row H and Column 8 each contained serial dilutions of one of the agents alone for determination of the MIC.
(§6) Plates were stacked 3 high, covered with a lid on the top plate, placed in plastic bags, and incubated at 35° C. for approximately 20 hours. Following incubation, the microplates were removed from the incubator and viewed from the bottom using a ScienceWare plate viewer. Prepared reading sheets were marked for the MIC of drug 1 (row H), the MIC of drug 2 (column 8) and the wells of the growth-no growth interface.

Staphylococcus aureus = test: MIC, broth microdilution (Example 1); format: cell-based
Procedure: as §1, §2, §3, §4, §5, §6

Streptococcus pyogenes = test: MIC, broth microdilution (Example 1); format: cell-based
Procedure: as §1, §2, §3, §4, §5, §6

HA-MRSA = test: Susceptibility testing MIC/MBC, broth microdilution (Example 3); format: cell-based, Staphylococcus aureus; conditions: for MIC50 / MIC90 / MBC / MIC: Staphylococcus aureus; for MIC50: read-out: MIC50; for MIC90: read-out: MIC90; for MBC: read-out: MBC; for MIC: read-out: MIC
Procedure: Two hundred clinical HA-MRSA isolates, harboring the SCCmecIV type, were evaluated for susceptibility testing. […] Four strains, including 1 hVISA and 1 VISA, characterized by population analysis profile and Macro Etest were selected for time-kill analysis.
Trypose soy agar (TSA; Difco, Detroit, Mich.) was used for colony counting.
Minimum inhibitory concentrations (MIC) and minimum bactericidal concentrations (MBC) were determined by broth microdilution for all antimicrobials, according to the Clinical and Laboratory Standards Institute (CLSI) guidelines (Clinical and Laboratory Standards Institute. 2006. Methods for Dilution Antimicrobial Susceptibility Tests for Bacteria That Grow Aerobically; Approved Standard. 7th ed. Wayne, Pa.: CLSI). MBC values were determined by plating of aliquots of 5 μL from clear wells onto TSA. All susceptibility testing were performed in duplicate.

[1] = Staphylococcus aureus, ATCC29213, S. aureus 0100 (ATCC 29213), FIC control, read-out: MIC
[2] = Enterococcus faecalis, E. faecalis 0795 (VSE), read-out: MIC
[3] = Enterococcus faecalis, E. faecalis 0796 (VSE), read-out: MIC
[4] = Staphylococcus aureus, MRSA, S. aureus 0765 (MRSA), read-out: MIC
[5] = Staphylococcus aureus, MRSA, S. aureus 2053 (MRSA), read-out: MIC
[6] = Staphylococcus aureus, MSSA, S. aureus 0753 (MSSA), read-out: MIC
[7] = Staphylococcus aureus, MSSA, S. aureus 2063 (MSSA), read-out: MIC
[8] = Streptococcus pyogenes, S. pyogenes 0717, read-out: MIC
[9] = Streptococcus pyogenes, S. pyogenes 0722, read-out: MIC
[10] = MRSA / VISA, HA-MRSA isolate R2303 (VISA)
[11] = MRSA, HA-MRSA isolate R3875 (hVISA)

MIC (Enterococcus faecalis; [2]) [µg/mL]	MIC (Enterococcus faecalis; [3]) [µg/mL]	MIC (Staphylococcus aureus; [4]) [µg/mL]	MIC (Staphylococcus aureus; [5]) [µg/mL]	MIC (Staphylococcus aureus; [6]) [µg/mL]	MIC (Staphylococcus aureus; [7]) [µg/mL]	MIC (Streptococcus pyogenes; [8]) [µg/mL]	MIC (Streptococcus pyogenes; [9]) [µg/mL]	% of Isolates with MIC 0.25 μg/mL (HA-MRSA; 200 HA-MRSA isolates) [%]	% of Isolates with MIC 0.5 μg/mL (HA-MRSA; 200 HA-MRSA isolates) [%]	% of Isolates with MIC 1 μg/mL (HA-MRSA; 200 HA-MRSA isolates) [%]	% of Isolates with MIC ≧4 μg/mL (HA-MRSA; 200 HA-MRSA isolates) [%]	MIC range (HA-MRSA; 200 HA-MRSA isolates) [µg/mL]	MIC50 (HA-MRSA; MRSA, 200 HA-MRSA isolates) [µg/mL]	SMILES	MIC (Staphylococcus aureus; [1]) [µg/mL]	% of Isolates with MBC 0.5 μg/mL (HA-MRSA; 200 HA-MRSA isolates) [%]	% of Isolates with MBC 1 μg/mL (HA-MRSA; 200 HA-MRSA isolates) [%]	% of Isolates with MBC 2 μg/mL (HA-MRSA; 200 HA-MRSA isolates) [%]	% of Isolates with MBC ≧4 μg/mL (HA-MRSA; 200 HA-MRSA isolates) [%]	MBC range (HA-MRSA; 200 HA-MRSA isolates) [µg/mL]	other results
														O=C(O)c1cn(C2CC2)c2cc(N3CCNCC3)c(F)cc2c1=O [Ciprofloxacin]	0.25 to 0.5						MIC (Enterococcus faecalis; E. faecalis 0101 (ATCC 29212), FIC control): 1 µg/mL and 0.5 µg/mL; MIC (Enterococcus faecalis; Enterococcus faecalis, ATCC29212, E. faecalis 0101 (ATCC 29212), FIC control, read-out: MIC): 0.5 to 1 µg/mL; MIC (Staphylococcus aureus; S. aureus 0100 (ATCC 29213), FIC control): 0.50 µg/mL and 0.25 µg/mL
														O=C(O)[C@H]1/C(=C/CO)O[C@@H]2CC(=O)N21 [Clavulanate]	> 16						
1	2	0.5	0.5	0.5	1	0.05	0.06	58.5	20.5	1	0.5	0.125 to 4	0.25 (≈ 0.154 µM)	CCCCCCCCCC(=O)N[C@@H](Cc1c[nH]c2ccccc12)C(=O)N[C@H](CC(N)=O)C(=O)N[C@@H](CC(=O)O)C(=O)N[C@@H]1C(=O)NCC(=O)N[C@@H](CCCN)C(=O)N[C@@H](CC(=O)O)C(=O)N[C@H](C)C(=O)N[C@@H](CC(=O)O)C(=O)NCC(=O)N[C@H](CO)C(=O)N[C@@H]([C@H](C)CC(=O)O)C(=O)N[C@@H](CC(=O)c2ccccc2N)C(=O)O[C@@H]1C [Daptomycin]		35	5	2.5	0.5	0.125 to 4	MIC (Streptococcus pyogenes; S. pyogenes 0717): 0.06 µg/mL; % of Isolates with MBC 0.25 μg/mL (HA-MRSA; 200 HA-MRSA isolates): 47.5%; % of Isolates with MBC […] (HA-MRSA; 200 HA-MRSA isolates): 9.5%; % of Isolates with MIC […] (HA-MRSA; 200 HA-MRSA isolates): 19.5%; MIC90 (HA-MRSA; 200 HA-MRSA isolates): 0.5 µg/mL (≈ 0.309 µM)
2	4	4	2	4	4	1	1	9.5	16	15.5	11.5	0.25 to 4	2 (≈ 5.93 µM)	CC(=O)NC[C@H]1CN(c2ccc(N3CCOCC3)c(F)c2)C(=O)O1 [Linezolid]		1.5	12	13.5	73	0.5 to 64	MIC (Enterococcus faecalis; Enterococcus faecalis, VRE, E. faecalis 0847 (VRE), read-out: MIC): 2 µg/mL; MIC (Enterococcus faecalis; Enterococcus faecalis, VRE, E. faecalis 0849 (VRE), read-out: MIC): 2 µg/mL; % of Isolates with MIC 2 μg/mL (HA-MRSA; 200 HA-MRSA isolates): 47.5%; MIC90 (HA-MRSA; 200 HA-MRSA isolates): 4 µg/mL (≈ 11.9 µM)
														NC[C@H]1O[C@H](O[C@H]2[C@H](O)[C@@H](O[C@H]3O[C@H](CO)[C@@H](O)[C@H](N)[C@H]3O)[C@H](N)C[C@@H]2N)[C@H](N)C[C@@H]1O [Tobramycin]							MBC (HA-MRSA; [10]): 0.5 µg/mL (≈ 1.07 µM); MIC (HA-MRSA; [10]): 0.125 µg/mL (≈ 0.267 µM); MBC (HA-MRSA; MRSA, HA-MRSA isolate R3804): 1 µg/mL (≈ 2.14 µM); MIC (HA-MRSA; MRSA, HA-MRSA isolate R3804): 0.5 µg/mL (≈ 1.07 µM); MBC (HA-MRSA; [11]): 0.5 µg/mL (≈ 1.07 µM); MIC (HA-MRSA; [11]): 0.5 µg/mL (≈ 1.07 µM); MBC (HA-MRSA; MRSA, HA-MRSA isolate R4039): 1 µg/mL (≈ 2.14 µM); MIC (HA-MRSA; MRSA, HA-MRSA isolate R4039): 1 µg/mL (≈ 2.14 µM)
